From ChEMBL document CHEMBL4229501, “Synthesis, characterization and nociceptive screening of new VV-hemorphin-5 analogues” (Bioorg Med Chem Lett, 2018)
Calls of active or inactive are those of the source. The calls are words filed in the database; no cut-off is given here. Square brackets hold non-standard residues; d marks the D form. Peptide text beside a SMILES is read from it. Aib = CC(C)(N)C(=O)O

Legend:
Mus musculus [1] = experiment: Antinociceptive activity in albino ICR mouse assessed as decrease in number of acetic acid-induced abdominal constriction at 25 to 50 ug/mouse, icv administered 5 mins prior to acetic acid challenge and measured every 5 mins for 30 mins post acetic acid challenge; format: functional, organism-based
Mus musculus [2] = experiment: Antinociceptive activity in albino ICR mouse assessed as decrease in number of acetic acid-induced abdominal constriction at 100 ug/mouse, icv administered 5 mins prior to acetic acid challenge and measured every 5 mins for 10 mins post acetic acid challenge; format: functional, organism-based
[3] = Anodic potential of the compound at pH 8.10 by differential pulse voltammetry; format: physicochemical; settings: pH 8.1
[4] = Anodic potential of the compound at pH 5.02 by differential pulse voltammetry; format: physicochemical
[5] = Anodic potential of the compound at pH 6.02 by differential pulse voltammetry; format: physicochemical
Mus musculus [6] = experiment: Antinociceptive activity in albino ICR mouse assessed as decrease in number of acetic acid-induced abdominal constriction at 25 to 100 ug/mouse, icv administered 5 mins prior to acetic acid challenge and measured every 5 mins for 30 mins post acetic acid challenge; format: functional, organism-based
[7] = Anodic potential of the compound at pH 10.20 by differential pulse voltammetry; format: physicochemical; settings: pH 10.2
[8] = Anodic potential of the compound at pH 6.86 by differential pulse voltammetry; format: physicochemical
[9] = Dissociation constant, pKa of the compound at pH 5.02 to 10.20 by cyclic voltammetry; format: physicochemical
[10] = Anodic potential of the compound at pH 9.20 by differential pulse voltammetry; format: physicochemical; settings: pH 9.2
Mus musculus [11] = experiment: Antinociceptive activity in albino ICR mouse assessed as decrease in number of acetic acid-induced abdominal constriction at 25 ug/mouse, icv administered 5 mins prior to acetic acid challenge and measured every 5 mins for 30 mins post acetic acid challenge; format: functional, organism-based
Mus musculus [12] = experiment: Antinociceptive activity in albino ICR mouse assessed as decrease in number of acetic acid-induced abdominal constriction at 50 to 100 ug/mouse, icv administered 5 mins prior to acetic acid challenge and measured every 5 mins for 30 mins post acetic acid challenge; format: functional, organism-based
Mus musculus [13] = experiment: Antinociceptive activity in albino ICR mouse assessed as decrease in number of acetic acid-induced abdominal constriction at 100 ug/mouse, icv administered 5 mins prior to acetic acid challenge and measured at 5 mins post acetic acid challenge; format: functional, organism-based
Mus musculus [14] = experiment: Antinociceptive activity in albino ICR mouse assessed as decrease in number of acetic acid-induced abdominal constriction at 100 ug/mouse, icv administered 5 mins prior to acetic acid challenge and measured every 5 mins for 15 mins post acetic acid challenge; format: functional, organism-based
Mus musculus [15] = experiment: Antinociceptive activity in albino ICR mouse assessed as decrease in number of acetic acid-induced abdominal constriction at 50 ug/mouse, icv administered 5 mins prior to acetic acid challenge and measured every 5 mins for 30 mins post acetic acid challenge; format: functional, organism-based

| Compound | Activity [3] [V] | Activity [4] [V] | Activity [5] [V] | Activity [7] [V] | Activity [8] [V] | pKa [9] | Activity [10] [V] | also measured |
| --- | --- | --- | --- | --- | --- | --- | --- | --- |
| CC[C@H](C)[C@@H](N)C(=O)N[C@H](C(=O)N[C@H](C(=O)N[C@@H](Cc1ccc(O)cc1)C(=O)N1CCC[C@H]1C(=O)N[C@@H](Cc1c[nH]c2ccccc12)C(=O)N[C@H](C(=O)N[C@@H](CCC(N)=O)C(N)=O)[C@@H](C)O)C(C)C)C(C)C |  |  |  |  |  |  |  | Activity (Mus musculus [1]): Dose-dependent effect; Activity (Mus musculus [2]): inactive |
| CC(C)[C@H](NC(=O)[C@@H](NC(=O)C(C)(C)N)C(C)C)C(=O)N[C@@H](Cc1ccc(O)cc1)C(=O)N1CCC[C@H]1C(=O)N[C@@H](Cc1c[nH]c2ccccc12)C(=O)N[C@H](C(=O)N[C@@H](CCC(N)=O)C(N)=O)[C@@H](C)O (H-[Aib]VVYPWTQ-NH2) | 0.025 | 0.232 | 0.175 | 0.03 | 0.101 | 8.17 | 0.031 | Activity (Mus musculus [6]): inactive |
| H-VVYPWTQ-NH2 | 0.046 | 0.225 | 0.151 | 0.046 | 0.048 | 7.13 | 0.046 | Activity (Mus musculus [11]): inactive; Activity (Mus musculus [12]): Active |
| CC(C)[C@H](N)C(=O)N[C@H](C(=O)N[C@@H](Cc1ccc(O)cc1)C(=O)N1CCC[C@H]1C(=O)N[C@@H](Cc1c[nH]c2ccccc12)C(=O)N[C@H](C(=O)N[C@@H](CCCN)C(N)=O)[C@@H](C)O)C(C)C | 0.075 | 0.225 | 0.175 | 0.079 | 0.117 | 7.83 | 0.082 |  |
| CC(C)[C@H](N)C(=O)N[C@H](C(=O)N[C@@H](Cc1ccc(O)cc1)C(=O)N1CCC[C@H]1C(=O)N[C@@H](Cc1c[nH]c2ccccc12)C(=O)N[C@H](C(=O)N[C@@H](CCCCN)C(N)=O)[C@@H](C)O)C(C)C | 0.071 | 0.211 | 0.15 | 0.057 | 0.125 | 8.24 | 0.055 |  |
| CC[C@H](C)[C@H](N)C(=O)N[C@H](C(=O)N[C@H](C(=O)N[C@@H](Cc1ccc(O)cc1)C(=O)N1CCC[C@H]1C(=O)N[C@@H](Cc1c[nH]c2ccccc12)C(=O)N[C@H](C(=O)N[C@@H](CCC(N)=O)C(N)=O)[C@@H](C)O)C(C)C)C(C)C | 0.062 | 0.213 | 0.16 | 0.06 | 0.11 | 8.01 | 0.067 |  |
| CC(C)[C@H](N)C(=O)N[C@H](C(=O)N[C@@H](Cc1ccc(O)cc1)C(=O)N1CCC[C@H]1C(=O)N[C@@H](Cc1c[nH]c2ccccc12)C(=O)N[C@H](C(=O)N[C@H](CN)C(N)=O)[C@@H](C)O)C(C)C |  |  |  |  |  |  |  | Activity (Mus musculus [6]): Active |
| CC(C)[C@H](N)C(=O)N[C@H](C(=O)N[C@@H](Cc1ccc(O)cc1)C(=O)N1CCC[C@H]1C(=O)N[C@@H](Cc1c[nH]c2ccccc12)C(=O)N[C@H](C(=O)N[C@@H](CN)C(N)=O)[C@@H](C)O)C(C)C | 0.085 | 0.225 | 0.207 | 0.001 | 0.15 | 9.23 | 0.008 |  |
| CC(C)[C@H](N)C(=O)N[C@H](C(=O)N[C@@H](Cc1ccc(O)cc1)C(=O)N1CCC[C@H]1C(=O)N[C@@H](Cc1c[nH]c2ccccc12)C(=O)N[C@H](C(=O)N[C@@H](CCN)C(N)=O)[C@@H](C)O)C(C)C | 0.009 | 0.23 | 0.13 | 0 | 0.07 | 8.12 | 0.001 |  |
| CC(C)[C@H](N)C(=O)N[C@H](C(=O)N[C@@H](Cc1ccc(O)cc1)C(=O)N1CCC[C@H]1C(=O)N[C@@H](Cc1c[nH]c2ccccc12)C(=O)N[C@H](C(=O)N[C@H](CCN)C(N)=O)[C@@H](C)O)C(C)C |  |  |  |  |  |  |  | Activity (Mus musculus [1]): Dose-dependent effect; Activity (Mus musculus [13]): Active; Activity (Mus musculus [14]): inactive |
| CC(C)[C@H](N)C(=O)N[C@H](C(=O)N[C@@H](Cc1ccc(O)cc1)C(=O)N1CCC[C@H]1C(=O)N[C@@H](Cc1c[nH]c2ccccc12)C(=O)N[C@H](C(=O)N[C@H](CCCN)C(N)=O)[C@@H](C)O)C(C)C |  |  |  |  |  |  |  | Activity (Mus musculus [11]): inactive; Activity (Mus musculus [15]): Active |
| CC(C)[C@H](N)C(=O)N[C@H](C(=O)N[C@@H](Cc1ccc(O)cc1)C(=O)N1CCC[C@H]1C(=O)N[C@@H](Cc1c[nH]c2ccccc12)C(=O)N[C@H](C(=O)N[C@H](CCCCN)C(N)=O)[C@@H](C)O)C(C)C |  |  |  |  |  |  |  | Activity (Mus musculus [11]): Active; Activity (Mus musculus [2]): Active |
